Test results published in patent publication US20250250230A1, “HETEROCYCLIC COMPOUND” (TAKEDA PHARMACEUTICAL COMPANY LIMITED, priority 2022, published 2025).

What follows are molecules tested against T1, human orexin type 2 receptor (Homo sapiens, UniProt O43614) (assay: Measurement of orexin type 2 receptor agonist activity (calcium fluorescence, Fluo-4 AM, FDSS)). Conditions: test compound 3 μM; CHO cells expressing human OX2 receptor; DMSO = 0%, orexin A (human) = 100%.
T1 construct: expressed in transfected cells
T1 sequence (O43614 1-444): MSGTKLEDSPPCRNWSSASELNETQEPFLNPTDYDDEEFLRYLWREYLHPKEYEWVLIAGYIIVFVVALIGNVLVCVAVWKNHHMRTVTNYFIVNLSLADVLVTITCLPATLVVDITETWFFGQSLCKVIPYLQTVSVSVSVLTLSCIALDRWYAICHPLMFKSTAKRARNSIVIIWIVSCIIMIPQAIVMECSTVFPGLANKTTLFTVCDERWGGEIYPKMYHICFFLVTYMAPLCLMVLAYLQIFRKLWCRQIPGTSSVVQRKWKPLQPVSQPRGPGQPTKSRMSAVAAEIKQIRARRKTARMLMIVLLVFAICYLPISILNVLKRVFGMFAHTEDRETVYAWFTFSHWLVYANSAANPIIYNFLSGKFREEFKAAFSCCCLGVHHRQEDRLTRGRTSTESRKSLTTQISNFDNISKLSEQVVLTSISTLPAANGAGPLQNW
Format: cell-based
Procedure, shortened: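 CHO-K1 cells stably expressing human OX2R were loaded with Fluo-4 AM (30 min 37 °C, 30 min RT) in HEPES-buffered HBSS with 0.1% BSA and probenecid. Calcium fluorescence was followed on FDSS for 2 min after compound addition; activity normalised to DMSO (0%) and 10 nM orexin A (100%).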

Compared with `CS(=O)(=O)NC1CN(C(=O)C2CC2c2ccccc2-c2c(F)cccc2F)CC1(F)F` (racemic) [Example 130, a mixture of rac-N-{(3R)-1-[(1R,2R)-2-(2′,6′-difluoro[1,1′-biphenyl]-2-yl)cyclopropane-1-carbonyl]-4,4-difluoropyrrolidin-3-yl}methanesulfonamide and rac-N-{(3S)-1-[(1R,2R)-2-(2′,6′-difluoro[1,1′-biphenyl]-2-yl)cyclopropane-1-carbonyl]-4,4-difluoropyrrolidin-3-yl}methanesulfonamide], `CS(=O)(=O)NC1CN(C(=O)C2CC2c2ccccc2-c2c(F)cccc2F)CC1F` (racemic) [Example 137, a mixture of rac-N-{(3S,4R)-1-[(1R,2R)-2-(2′,6′-difluoro[1,1′-biphenyl]-2-yl)cyclopropane-1-carbonyl]-4-fluoropyrrolidin-3-yl}methanesulfonamide and rac-N-{(3R,4S)-1-[(1R,2R)-2-(2′,6′-difluoro[1,1′-biphenyl]-2-yl)cyclopropane-1-carbonyl]-4-fluoropyrrolidin-3-yl}methanesulfonamide] is lower in “OX2R agonist activity (3 μM, %)” value: 87% for the first, 59% for the second.

First: CS(=O)(=O)NC1CCN(C(=O)C2CC2c2ccc(F)cc2-c2ccccc2Cl)C1 (racemic) [Example 134, a mixture of rac-N-{(3R)-1-[(1R,2R)-2-(2′-chloro-5-fluoro[1,1′-biphenyl]-2-yl)cyclopropane-1-carbonyl]pyrrolidin-3-yl}methanesulfonamide and rac-N-{(3S)-1-[(1R,2R)-2-(2′-chloro-5-fluoro[1,1′-biphenyl]-2-yl)cyclopropane-1-carbonyl]pyrrolidin-3-yl}methanesulfonamide]
Second: Cc1ccc(C2CC2C(=O)N2CCC(NS(C)(=O)=O)C2)c(-c2ccccc2Cl)c1 (racemic) [Example 145, a mixture of rac-N-{(3R)-1-[(1R,2R)-2-(2′-chloro-5-methyl[1,1′-biphenyl]-2-yl)cyclopropane-1-carbonyl]pyrrolidin-3-yl}methanesulfonamide and rac-N-{(3S)-1-[(1R,2R)-2-(2′-chloro-5-methyl[1,1-biphenyl]-2-yl)cyclopropane-1-carbonyl]pyrrolidin-3-yl}methanesulfonamide]
The “OX2R agonist activity (3 μM, %)” value of the first is lower: 74% for the first, 94% for the second.

Compared with `CS(=O)(=O)NC1CCN(C(=O)C2CC2c2ccc(F)cc2-c2c(F)cccc2F)C1` (racemic) [Example 135, a mixture of rac-N-{(3R)-1-[(1R,2R)-2-(2′,5,6′-trifluoro[1,1′-biphenyl]-2-yl)cyclopropane-1-carbonyl]pyrrolidin-3-yl}methanesulfonamide and rac-N-{(3S)-1-[(1R,2R)-2-(2′,5,6′-trifluoro[1,1′-biphenyl]-2-yl)cyclopropane-1-carbonyl]pyrrolidin-3-yl}methanesulfonamide], `CS(=O)(=O)NC1CCCN(C(=O)C2CC2c2ccc(F)cc2-c2c(F)cccc2F)C1` (racemic) [Example 152, a mixture of rac-N-{(3R)-1-[(1R,2R)-2-(2′,5,6′-trifluoro[1,1′-biphenyl]-2-yl)cyclopropane-1-carbonyl]piperidin-3-yl}methanesulfonamide and rac-N-{(3S)-1-[(1R,2R)-2-(2′,5,6′-trifluoro[1,1′-biphenyl]-2-yl)cyclopropane-1-carbonyl]piperidin-3-yl}methanesulfonamide] is lower in “OX2R agonist activity (3 μM, %)” value: 111% for the first, 95% for the second.

`Cc1ccc(C2CC2C(=O)N2CCC(NS(C)(=O)=O)C2)c(-c2c(F)cccc2F)c1` (racemic) [Example 136, a mixture of rac-N-{(3R)-1-[(1R,2R)-2-(2′,6′-difluoro-5-methyl[1,1′-biphenyl]-2-yl)cyclopropane-1-carbonyl]pyrrolidin-3-yl}methanesulfonamide and rac-N-{(3S)-1-[(1R,2R)-2-(2′,6′-difluoro-5-methyl[1,1′-biphenyl]-2-yl)cyclopropane-1-carbonyl]pyrrolidin-3-yl}methanesulfonamide] and `Cc1ccc(C2CC2C(=O)N2CCCC(NS(C)(=O)=O)C2)c(-c2c(F)cccc2F)c1` (racemic) [Example 166, a mixture of rac-N-{(3R)-1-[(1R,2R)-2-(2′,6′-difluoro-5-methyl[1,1′-biphenyl]-2-yl)cyclopropane-1-carbonyl]piperidin-3-yl}methanesulfonamide and rac-N-{(3S)-1-[(1R,2R)-2-(2′,6′-difluoro-5-methyl[1,1′-biphenyl]-2-yl)cyclopropane-1-carbonyl]piperidin-3-yl}methanesulfonamide] are the same in “OX2R agonist activity (3 μM, %)” value: 110% for the first, 110% for the second.

First: CS(=O)(=O)NC1CCCN(C(=O)C2CC2c2ccc(F)cc2-c2c(F)cccc2F)CC1 (racemic) [Example 153, a mixture of rac-N-{(4R)-1-[(1R,2R)-2-(2′,5,6′-trifluoro[1,1′-biphenyl]-2-yl)cyclopropane-1-carbonyl]azepan-4-yl}methanesulfonamide and rac-N-{(4S)-1-[(1R,2R)-2-(2′,5,6′-trifluoro[1,1′-biphenyl]-2-yl)cyclopropane-1-carbonyl]azepan-4-yl}methanesulfonamide]
Second: Cc1ccc(C2CC2C(=O)N2CCCC(NS(C)(=O)=O)CC2)c(-c2c(F)cccc2F)c1 (racemic) [Example 167, a mixture of rac-N-{(4R)-1-[(1R,2R)-2-(2′,6′-difluoro-5-methyl[1,1′-biphenyl]-2-yl)cyclopropane-1-carbonyl]azepan-4-yl}methanesulfonamide and rac-N-{(4S)-1-[(1R,2R)-2-(2′,6′-difluoro-5-methyl[1,1′-biphenyl]-2-yl)cyclopropane-1-carbonyl]azepan-4-yl}methanesulfonamide]
The “OX2R agonist activity (3 μM, %)” value of the first is higher: 100% for the first, 96% for the second.

Compared with `CC1CC(NS(C)(=O)=O)CN(C(=O)C2CC2c2ccccc2-c2c(F)cccc2F)C1` (racemic) [Example 158], `CC1CCN(C(=O)C2CC2c2ccccc2-c2c(F)cccc2F)CC1NS(C)(=O)=O` (racemic) [Example 185, a mixture of rac-N-{(3R,4R)-1-[(1R,2R)-2-(2′,6′-difluoro[1,1′-biphenyl]-2-yl)cyclopropane-1-carbonyl]-4-methylpiperidin-3-yl}methanesulfonamide and rac-N-{(3S,4S)-1-[(1R,2R)-2-(2′,6′-difluoro[1,1′-biphenyl]-2-yl)cyclopropane-1-carbonyl]-4-methylpiperidin-3-yl}methanesulfonamide] is lower in “OX2R agonist activity (3 μM, %)” value: 106% for the first, 57% for the second.

Compared with `CCS(=O)(=O)NC1CCCCN(C(=O)C2CC2c2ccccc2-c2c(F)cccc2F)C1` (racemic) [Example 159, a mixture of rac-N-{(3R)-1-[(1R,2R)-2-(2′,6′-difluoro[1,1′-biphenyl]-2-yl)cyclopropane-1-carbonyl]azepan-3-yl}ethanesulfonamide and rac-N-{(3S)-1-[(1R,2R)-2-(2′,6′-difluoro[1,1′-biphenyl]-2-yl)cyclopropane-1-carbonyl]azepan-3-yl}ethanesulfonamide], `CN(C)S(=O)(=O)NC1CCCCN(C(=O)C2CC2c2ccccc2-c2c(F)cccc2F)C1` (racemic) [Example 162, a mixture of rac-N′-{(3R)-1-[(1R,2R)-2-(2′,6′-difluoro[1,1′-biphenyl]-2-yl)cyclopropane-1-carbonyl]azepan-3-yl}-N,N-dimethylsulfuric diamide and rac-N′-{(3S)-1-[(1R,2R)-2-(2′,6′-difluoro[1,1′-biphenyl]-2-yl)cyclopropane-1-carbonyl]azepan-3-yl}-N,N-dimethylsulfuric diamide] is higher in “OX2R agonist activity (3 μM, %)” value: 101% for the first, 106% for the second.

Compared with `O=C(C1CC1c1ccccc1-c1c(F)cccc1F)N1CCCCC(NS(=O)(=O)C2CC2)C1` (racemic) [Example 161, a mixture of rac-N-{(3R)-1-[(1R,2R)-2-(2′,6′-difluoro[1,1′-biphenyl]-2-yl)cyclopropane-1-carbonyl]azepan-3-yl}cyclopropanesulfonamide and rac-N-{(3S)-1-[(1R,2R)-2-(2′,6′-difluoro[1,1′-biphenyl]-2-yl)cyclopropane-1-carbonyl]azepan-3-yl}cyclopropanesulfonamide], `CN(C)S(=O)(=O)NC1CCCN(C(=O)C2CC2c2ccccc2-c2c(F)cccc2F)C1` (racemic) [Example 164, a mixture of rac-N′-{(3R)-1-[(1R,2R)-2-(2′,6′-difluoro[1,1′-biphenyl]-2-yl)cyclopropane-1-carbonyl]piperidin-3-yl}-N,N-dimethylsulfuric diamide and rac-N′-{(3S)-1-[(1R,2R)-2-(2′,6′-difluoro[1,1′-biphenyl]-2-yl)cyclopropane-1-carbonyl]piperidin-3-yl}-N,N-dimethylsulfuric diamide] is higher in “OX2R agonist activity (3 μM, %)” value: 99% for the first, 104% for the second.

First: CC1CCN(C(=O)C2CC2c2ccccc2-c2c(F)cccc2F)CCC1NS(C)(=O)=O (racemic) [Example 186]
Second: CS(=O)(=O)NC1CCN(C(=O)C2CC2c2c(F)cccc2-c2ccccc2F)C1 (racemic) [Example 188, a mixture of rac-N-{(3R)-1-[(1R,2R)-2-(2′,3-difluoro[1,1′-biphenyl]-2-yl)cyclopropane-1-carbonyl]pyrrolidin-3-yl}methanesulfonamide and rac-N-{(3S)-1-[(1R,2R)-2-(2′,3-difluoro[1,1′-biphenyl]-2-yl)cyclopropane-1-carbonyl]pyrrolidin-3-yl}methanesulfonamide]
The “OX2R agonist activity (3 μM, %)” value of the first is higher: 101% for the first, 86% for the second.
